Results as given in ChEMBL document CHEMBL4017474, “A calcineurin antifungal strategy with analogs of FK506” (Bioorg Med Chem Lett, 2017).
Activity calls are given as the source filed them. The rule behind the calls is not given here.

Columns and labels:
Jurkat = assay: Immunosuppressive activity in PMA/ionomycin stimulated human Jurkat T cells assessed as suppression of IL2 production pretreated for 15 to 30 mins followed by PMA/ionomycin addition measured after 18 to 20 hrs by ELISA; format: cell-based
PBMC [1] = assay: Reversal of FK506-induced inhibition of cell proliferation in concanavalin A stimulated human PBMC at 1 uM measured after 72 hrs by CellTiter-Glo assay relative to control; format: functional; parameters: scale not given: the % may be the effect or the level left
PBMC [2] = assay: Antiproliferative activity against concanavalin A stimulated human PBMC at 1 to 2 ug/ml measured after 72 hrs by CellTiter-Glo assay; format: cell-based
[3] = molecular target: T1, Peptidyl-prolyl cis-trans isomerase FKBP1A (Homo sapiens, UniProt P62942); assay: Antagonist activity at human FKBP12 measured after 30 mins by fluorescein labelled SLF tracer based fluorescence polarization assay
Aspergillus fumigatus [4] = assay: Antifungal activity against Aspergillus fumigatus assessed as spore germination at 12.5 ug/ml measured after 48 hrs in presence of FK506 by broth dilution method relative to control; format: functional
[5] = molecular target: T1, Peptidyl-prolyl cis-trans isomerase FKBP1A; assay: (§1) Antagonist activity at recombinant human N-terminal His6-tagged FKBP12 expressed in Escherichia coli assessed as inhibition of FKBP12 binding to calcineurin at 5 uL using […] pretreated for 1 hr followed by substrate addition measured after 1 hr by biomol green dye based spectrophotometric method
[6] = molecular target: T1, Peptidyl-prolyl cis-trans isomerase FKBP1A; assay: as §1, with “of FK506 mediated” for “of”, “calcineurin” for “calcineurin at 5 uL”
Vero 76 = assay: Cytotoxicity against African green monkey Vero 76 cells; format: cell-based; details: Chlorocebus sabaeus
HepG2 = assay: Cytotoxicity against human HepG2 cells; format: cell-based
Aspergillus fumigatus [7] = assay: Antifungal activity against Aspergillus fumigatus up to 25 ug/ml measured after 48 hrs by broth dilution method; format: functional
Aspergillus fumigatus [8] = assay: Permeability across Aspergillus fumigatus at 12.5 ug/ml relative to human PBMC; format: ADME
[9] = Terminal half-life in mouse at 3 mg/kg, iv; format: ADME, organism-based; details: in vivo, read-out: beta t1/2 (converted)
[10] = Clearance in mouse at 3 mg/kg, iv; format: ADME, organism-based; details: in vivo
[11] = Volume of distribution at steady state in mouse at 3 mg/kg, iv; format: ADME, organism-based; details: in vivo, read-out: Vdss
[12] = AUClast in mouse at 3 mg/kg, iv; format: ADME, organism-based; parameters: dose 3 mg/kg, time 0 - last, route intravenous; details: in vivo
[13] = Cmax in mouse at 10 mg/kg, po; format: ADME, organism-based; parameters: dose 10 mg/kg, route oral; details: in vivo
PBMC [14] = assay: Reversal of FK506-induced inhibition of cell proliferation in concanavalin A stimulated human PBMC at 0.1 uM measured after 72 hrs by CellTiter-Glo assay; format: functional, cell-based
Aspergillus fumigatus [15] = assay: Antifungal activity against Aspergillus fumigatus assessed as spore germination at 6.25 to 25 ug/ml measured after 48 hrs in presence of FK506 by broth dilution method; format: functional
[16] = Tmax in mouse at 10 mg/kg, po; format: ADME, organism-based; details: in vivo
[17] = Antagonist activity at Aspergillus fumigatus FKBP12 measured after 30 mins by fluorescein labelled SLF tracer based fluorescence polarization assay
[18] = AUClast in mouse at 10 mg/kg, po; format: ADME, organism-based; parameters: dose 10 mg/kg, time 0 - last, route oral; details: in vivo

T1 sequence (P62942 whole entry): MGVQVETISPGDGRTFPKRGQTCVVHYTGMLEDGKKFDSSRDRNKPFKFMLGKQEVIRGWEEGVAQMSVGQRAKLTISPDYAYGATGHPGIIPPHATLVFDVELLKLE

| SMILES | IC50 (Jurkat) [µM] | Activity (PBMC [1]) [%] | Activity (PBMC [2]) | IC50 [3] [µM] | Activity (Aspergillus fumigatus [4]) | inhibition [5] | IC50 [6] [µM] | IC50 (Vero 76) [µM] | IC50 (HepG2) [µM] | Activity (Aspergillus fumigatus [7]) | other results |
| --- | --- | --- | --- | --- | --- | --- | --- | --- | --- | --- | --- |
| CO[C@H]1C[C@@H](C)C/C(C)=C/[C@@H](CCCC(=O)NCCc2ccccn2)C(=O)C[C@H](O)[C@@H](C)[C@@H](/C(C)=C/[C@@H]2CC[C@@H](O)[C@H](OC)C2)OC(=O)[C@@H]2CCCCN2C(=O)C(=O)[C@]2(O)O[C@H]1[C@@H](OC)C[C@H]2C | > 10 | 36.6 | Non-Toxic | 0.0143 | 31% | inactive | 0.85 | > 100 | > 100 | inactive | – |
| CO[C@H]1C[C@@H](C)C/C(C)=C/[C@@H](CCCC(=O)N2CCC(CO)CC2)C(=O)C[C@H](O)[C@@H](C)[C@@H](/C(C)=C/[C@@H]2CC[C@@H](OCCO)[C@H](OC)C2)OC(=O)[C@@H]2CCCCN2C(=O)C(=O)[C@]2(O)O[C@H]1[C@@H](OC)C[C@H]2C | > 10 | 81.7 | Non-Toxic | 0.0236 | 24% | inactive | – | > 100 | > 100 | inactive | permeability (Aspergillus fumigatus [8]): 75% |
| CO[C@H]1C[C@@H](C)C/C(C)=C/[C@@H](CCCC(=O)NCCN2CCOCC2)C(=O)C[C@H](O)[C@@H](C)[C@@H](/C(C)=C/[C@@H]2CC[C@@H](O)[C@H](OC)C2)OC(=O)[C@@H]2CCCCN2C(=O)C(=O)[C@]2(O)O[C@H]1[C@@H](OC)C[C@H]2C | > 10 | 45.9 | Non-Toxic | 0.0115 | 39.7% | inactive | 0.824 | > 100 | > 100 | inactive | – |
| CO[C@H]1C[C@@H](C)C/C(C)=C/[C@@H](CC(=O)N2CCCC2)C(=O)C[C@H](O)[C@@H](C)[C@@H](/C(C)=C/[C@@H]2CC[C@@H](O)[C@H](OC)C2)OC(=O)[C@@H]2CCCCN2C(=O)C(=O)[C@]2(O)O[C@H]1[C@@H](OC)C[C@H]2C | > 10 | – | Non-Toxic | 0.0221 | 90.5% | inactive | – | > 100 | > 100 | inactive | half-life [9]: 42.8 min; clearance [10]: 22.8 mL/min/kg; Vd [11]: 1.01 L/kg; AUC(0-t) [12]: 2140 ng·h/mL |
| CO[C@H]1C[C@@H](C)C/C(C)=C/[C@@H](CCN(C)C)C(=O)C[C@H](O)[C@@H](C)[C@@H](/C(C)=C/[C@@H]2CC[C@@H](O)[C@H](OC)C2)OC(=O)[C@@H]2CCCCN2C(=O)C(=O)[C@]2(O)O[C@H]1[C@@H](OC)C[C@H]2C | > 10 | 105.6 | Non-Toxic | 0.0192 | 54.3% | inactive | – | > 100 | > 100 | inactive | – |
| CO[C@H]1C[C@@H](C)C/C(C)=C/[C@@H](CCCC(=O)N2CC(O)C2)C(=O)C[C@H](O)[C@@H](C)[C@@H](/C(C)=C/[C@@H]2CC[C@@H](O)[C@H](OC)C2)OC(=O)[C@@H]2CCCCN2C(=O)C(=O)[C@]2(O)O[C@H]1[C@@H](OC)C[C@H]2C | > 10 | 49.9 | Non-Toxic | 0.0125 | 24% | inactive | 1.11 | > 100 | > 100 | inactive | – |
| CC[C@@H]1/C=C(\C)C(O)[C@H](C)C[C@H](OC)[C@H]2O[C@@](O)(C(=O)C(=O)N3CCCC[C@H]3C(=O)O[C@H](/C(C)=C/[C@@H]3CC[C@@H](O)[C@H](OC)C3)[C@H](C)[C@@H](O)CC1=O)[C@H](C)C[C@@H]2OC (stereo partly specified) | > 10 | 78.7 | Non-Toxic | 0.0068 | 83 - 86.8% | inactive | 1.31 | > 100 | > 100 | inactive | Cmax [13]: 184 ng/mL; half-life [9]: 66.6 min; Activity (PBMC [14]): inactive; Activity (Aspergillus fumigatus [15]): inactive; clearance [10]: 60.8 mL/min/kg; Vd [11]: 2.58 L/kg; Tmax [16]: 15 min; IC50 [17]: 0.0185 µM; AUC(0-t) [18]: 208 ng·h/mL; AUC(0-t) [12]: 787 ng·h/mL |
